Laboratory results taken from article PMC7734798 (ACS Medicinal Chemistry Letters, 2020).

What was measured:
Assay type in all cases: cell-based, mouse
[1] = tested on: iNOS; test: Immunomodulation assay: iNOS (M1 marker) expression in LPS-treated N9 microglial cells (Western blot); conditions: 100 ng/mL LPS, 6 h pretreatment + 24 h, even at 0.5 μM
Text: (§1) Microglia, essential regulators of neuroinflammatory processes, can be polarized to two distinct activation states: M1 and M2. M1 microglia have proinflammatory, neurotoxic properties and are modeled in vitro through lipopolysaccharides (LPS) activation. Alternatively, M2 microglia are involved in anti-inflammatory processes, contributing to trophic support of neurons and neuroprotective functions. A marked microglial activation with high expression levels of proinflammatory genes is found in MS lesions.[23] Conversely, the neuroprotective effects of the MS drug glatiramer are mediated by activated M2 microglia.[24] To this end, we evaluated whether 1 and 2 modulate microglial shift from an M1 neurotoxic phenotype to an M2 neuroprotective one. […] After pretreatment for 6 h and administration for a further 24 h, the microglial phenotype was evaluated through Western blot analysis of the M1-iNOS (inducible Nitric Oxide Synthase) and M2-TREM2 (Triggering Receptor Expressed on Myeloid cells 2) markers (Figure 6). We also assessed nitrite production, due to iNOS induction, in the incubation media. […]
(§2) Nitrite accumulation in cell media was assayed by the Griess reaction. […] Absorbance was read at 540 nm using a plate reader after 15 min of incubation at room […]
(§3) After 24 hours, the viability was evaluated through the MTT assay. […]

[2] = tested on: TREM2; test: Immunomodulation assay: TREM2 (M2 marker) expression in LPS-treated N9 microglial cells (Western blot); conditions: 100 ng/mL LPS, 6 h pretreatment + 24 h
Text: as §1, §2, §3

[3] = tested on: N9 microglial cells; test: Nitrites measurement (Griess reaction) in medium of LPS-treated N9 microglial cells; conditions: 100 ng/mL LPS, 6 h pretreatment + 24 h
Text: as §1
medium/well and treated with increasing concentrations of the compounds (0.5, 1, 5 and 10 μM), in serum-free DMEM for 24 hours. After 24 hours, the viability was evaluated through the MTT assay. […]

[4] = tested on: CNPase; test: Oli-Neu differentiation marker CNPase expression (Western blot); conditions: Oli-Neu cells, 5 μM, 72 h
Text: OPC proliferation and migration to the CNS injury site as well as their differentiation are critical steps toward remyelination in MS. HDAC activity plays a crucial role in OPC proliferation/differentiation; therefore, HDAC modulation is widely considered a promising therapeutic target for MS.[30] […] Therefore, we tested the effect of our compounds on OPC proliferation and differentiation, through cell counting, measure of filaments, and analysis of proliferation/differentiation markers (Figure 7). […]
as §3
48 hours, for cell counting and measure of filaments, 5 random images for each condition were acquired with an Eclipse TS100 (Nikon) microscope using a 10X objective. Cells number and filament length were measured with Fiji ImageJ2 software. After 48 hours for proliferation and 72 hours of treatment for differentiation analysis, cells were lysed in ice-cold lysis buffer (50 mM Tris-HCl pH 7.4, 1% SDS, 0.05% protease inhibitor cocktail; all from Sigma-Aldrich) and protein content was determined by using the Lowry method. […]

SMILES	microglia production of M1 proinflammatory marker iNOS [1]	expression of TREM2 (M2 marker) [2]	levels of nitrites in incubation medium [3]	expression of CNPase, marker of differentiation [4]
CC/C=C\C/C=C\C/C=C\CCCCCCCC(=O)NCCNC(=O)C(CCC)CCC [compound 1]	significantly decrease	unchanged expression	reduced their concentration more effectively than VPA	significant increase
CC/C=C\C/C=C\C/C=C\CCCCCCCC(=O)NCCOC(=O)C(CCC)CCC [compound 2]	significantly decrease	unchanged expression	reduced their concentration more effectively than VPA	–
